In publication PMC11305387, “AlphaFold accelerated discovery of psychotropic agonists targeting the trace amine–associated receptor 1” (Science Advances, 2024):
Values joined by “and” are separate entries in the source; they are usually repeats but may differ in a detail not shown here. Equal values may be shown once. Read-outs that look alike come from different tables or passages of the source.

What was measured:
hTAAR1 = target: T1, hTAAR1 (Homo sapiens, UniProt Q96RJ0); test: G protein (mini-Gs) recruitment luminescence complementation assay, agonist mode; format: cell-based
T1 construct: expressed in transfected cells; host or cells: Expi293F
T1 sequence (Q96RJ0 1-339): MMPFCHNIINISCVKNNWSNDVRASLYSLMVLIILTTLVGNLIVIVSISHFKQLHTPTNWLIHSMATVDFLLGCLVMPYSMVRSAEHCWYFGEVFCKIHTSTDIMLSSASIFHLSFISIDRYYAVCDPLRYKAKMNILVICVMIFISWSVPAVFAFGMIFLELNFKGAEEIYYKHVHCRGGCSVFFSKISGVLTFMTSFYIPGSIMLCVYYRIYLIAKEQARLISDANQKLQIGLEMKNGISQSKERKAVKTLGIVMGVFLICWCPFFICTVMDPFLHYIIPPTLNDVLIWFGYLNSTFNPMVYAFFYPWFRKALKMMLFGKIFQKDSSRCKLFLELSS
Experimental: The 62 predicted ligands were purchased from commercial vendors and tested for activity at a concentration of 20 μM in a luminescence complementation–based assay measuring recruitment of mini-Gs to the human TAAR1 ([38]).
To monitor TAAR1 activation by compounds, we used our previously described system. […] Cells were then reseeded in solid white, 96-well plates (Corning) with 90 μl of cell suspension per well. Luminescence was read using a plate reader for 5 min (SPARK 10 M, Tecan) before the addition of compounds to ensure signal stability. Ten microliters of each compound diluted in DPBS was added, and luminescence from each well was read for 10 min, with 100-ms read time per well. The A2AR counter-screen was performed using the same protocol. In these experiments, the hTAAR1 was replaced by a C-terminally SmBiT-tagged hA2AR construct.

[1] = tested on: TAAR1-WT and TAAR1-KO mice; test: Core-body temperature (CBT) measurement; format: in vivo; details: TAAR1-KO mice, 1 mg/kg (fig. S13A)
Experimental: Core temperature was determined by a rectal thermoprobe. Compounds or vehicle was administered intraperitoneally. A basal measurement was performed immediately before injection. Measurements were repeated every 30 min for 2 hours. Mean changes in CBT were calculated by subtracting the value from vehicle treated group at the corresponding time point. A washout of 1 week between different doses of compound 65 was applied, and mice were injected starting with the lowest dose first.

[2] = Tables S3A/S3B, compounds tested at 20 μM, relative to the maximal effect of β-PEA (20 µM)
[3] = TAAR1, G protein recruitment assay, read-out: pEC50 (converted)
[4] = relative to the effect of the reference agonist β-PEA, read-out: Emax

Row | SMILES | Emax (hTAAR1; [2]) | EC50 (hTAAR1; [3]) | Emax (hTAAR1; [4]) | other results
1 | Cc1cccc(C2CCCN2)c1 (stereo not drawn) [Compound 2] | 1.3% |  |  | 
2 | Cc1nc(C(N)C(C)O)cs1.Cl.Cl (stereo not drawn) [Compound 3] | 2.3% |  |  | 
3 | Cl.Cl.c1cnc2c(c1)CNC2 [Compound 4] | 4.4% |  |  | 
4 | Cc1c(C(C)N)sc2ccccc12.Cl (stereo not drawn) [Compound 5] | 8.5% |  |  | 
5 | CNC(C)c1nc2ccccc2s1 (stereo not drawn) [Compound 6] | 8.8% |  |  | 
6 | CC(N)c1cc2ccccc2s1 (stereo not drawn) [Compound 7] | 14.7% |  |  | 
7 | CCCN(CCC)C1CCc2cccc(O)c2C1 (stereo not drawn) [Compound 8-OH-DPAT, 8-hydroxy-2-(di-n-propylamino)tetralin, reference compound] |  |  |  | CBT responsiveness [1]: validated the responsiveness of TAAR1-KO mice
8 | Br.NCc1cccc2c(O)cccc12 [Compound 8] | 14.9% |  |  | 
9 | NC1CSc2ccc(Br)cc21 (stereo not drawn) [Compound 9] | 19.1% |  |  | 
10 | CNCc1cc2sccc2n1C [Compound 11] | 40.4% |  |  | 
11 | NCc1noc2ccc(F)cc12 [Compound 13] |  | 3.16 µM | 51.8% | 
12 | C[C@H](N)c1coc2ccccc12 [Compound 14] |  | 7.94 µM | 54.3% | 
13 | C[C@H](N)c1csc2ccccc12 [Compound 15] |  | 6.31 µM | 57.5% | 
14 | C[C@@H](N)c1cc2ccccc2o1 [Compound 16] |  | 1.58 µM | 61.9% | 
15 | NC[C@H]1Cc2cc(Br)ccc2O1 [Compound 17] |  | 6.31 µM | 67.8% | 
16 | Cc1ccc(-c2cccc3c2CNCC3)o1 [Compound 18] |  | 0.631 µM | 68.7% | 
17 | CN[C@H]1CCc2ccccc2C1 [Compound 19] |  | 3.98 µM | 74.5% | Emax at 20 µM (hTAAR1; [2]): 72.8%
18 | N[C@H]1COc2cccc(Br)c2C1 [Compound 20] |  | 3.98 µM | 74.5% | 
19 | Cc1cc2c(CCN)csc2s1 [Compound 21] |  | 3.16 µM | 75.2% | Emax at 20 µM (hTAAR1; [2]): 75.3%
20 | CNCc1cccc2cccnc12 [Compound 22] |  | 3.16 µM | 78.5% | 
21 | NCc1nsc2ccccc12 [Compound 23] |  | 3.98 µM | 79.2% | 
22 | COc1cccc(C2=CCNC2)c1 [Compound 24] |  | 1.58 µM | 81.4% | Emax at 20 µM (hTAAR1; [2]): 81.8%
23 | c1csc([C@H]2CCCNC2)n1 [Compound 25] |  | 1 µM | 95.3% | 
24 | NC[C@H]1OCCc2sc(F)cc21 [Compound 26] |  | 1 µM | 95.5% | 
25 | Cc1ccc([C@@H]2CNCCO2)o1 [Compound 27] |  | 0.251 µM | 98.7% | 
26 | Cc1ccc2c(c1Br)CNC2 [Compound 28] |  | 0.398 µM | 103% | 
27 | Brc1csc2c1CNCC2 [Compound 29] |  | 0.158 µM | 106% | 
28 | CN1CCC(c2ccc(Br)cc2)C1 (stereo not drawn) [Compound 33] | 0.6% |  |  | 

Row | SMILES | Emax (hTAAR1; [2]) | EC50 (hTAAR1; [3]) | Emax (hTAAR1; [4]) | other results
29 | C[C@@H](NCC1CC1)c1coc2ccccc12 [Compound 35] | 0.9% |  |  | 
30 | CC(CNCc1ncc[nH]1)c1ccncc1 (stereo not drawn) [Compound 36] | 1.3% |  |  | 
31 | CC(NCCO)c1cccc2c1OCO2 (stereo not drawn) [Compound 38] | 3.5% |  |  | 
32 | CCNCc1nc(-c2cccs2)cs1 [Compound 39] | 3.9% |  |  | 
33 | CCN1CCc2ccccc2C(C)C1 (stereo not drawn) [Compound 43] | 7.6% |  |  | 
34 | OC(CNC[C@@H]1Cc2ccccc2CO1)C1CC1 (stereo partly drawn) [Compound 44] | 10.0% |  |  | 
35 | CN[C@@H](C)CNc1ncnc2sc(C)cc12 [Compound 46] | 18.8% |  |  | 
36 | c1ccc2c(c1)COC2CNCc1ccn[nH]1 (stereo not drawn) [Compound 47] | 21.0% |  |  | 
37 | CN1CCC(c2c[nH]c3ccccc23)C1 (stereo not drawn) [Compound 49] | 27.1% |  |  | 
38 | CCN1CCCC(c2ccccc2)C1 (stereo not drawn) [Compound 52] | 44.5% |  |  | 
39 | c1ccc2cc(CNC3CC3)ccc2c1 [Compound 56] |  | 12.6 µM | 63% | 
40 | CCNCc1cccc2c1OCO2 [Compound 57] |  | 5.01 µM | 73.2% | 
41 | CC[C@@H](CNCC1=CCCOC1)c1ccccc1 [Compound 58] |  | 7.94 µM |  | Emax (hTAAR1; relative to the effect of the reference agonist β-PEA): 78.4%
42 | CCNCc1cncc2ccccc12 [Compound 59] |  | 6.31 µM | 78.8% | 
43 | CCNCc1cccc2ccoc12 [Compound 60] |  | 3.16 µM | 79.9% | 
44 | c1ccc2c(c1)C[C@H]2CNCc1c[nH]cn1 [Compound 61] |  | 5.01 µM | 80.3% | 
45 | Brc1cccc2c1CNCC2 [Compound 62] |  | 0.316 µM | 107% | 
46 | c1coc(C2CNCCO2)c1 (stereo not drawn) [Compound 64] |  | 0.398 µM |  | fold reduction of agonist potency versus compound 30 (hTAAR1; TAAR1 G protein recruitment): > 10 fold
47 | Cn1cc(C2=CCCNC2)cn1 [Compound 66] |  | 2 µM |  | 
48 | C1=C(c2ccccc2)CNCC1 [Compound 67] |  |  |  | EC50 (hTAAR1; pEC50, TAAR1, G protein recruitment assay): 0.0251 µM
49 | COc1cccnc1C1=C(C)CCNC1 [Compound 69] |  | 3.16 µM |  | 
50 | CC1=C(c2cc[nH]n2)CNCC1 [Compound 71] |  | 1.58 µM and 0.631 µM |  | 
51 | CC1=C(c2ncco2)CNCC1 [Compound 74] |  | 0.631 µM |  | 
52 | CC1=C(c2ccccn2)CNCC1 [Compound 75] |  | 0.501 µM |  | 
53 | CC1=C(c2cccnn2)CNCC1 [Compound 76] |  | 50.1 µM and ~50.1 µM |  | 
54 | CC1=C(c2ccncc2)CNCC1 [Compound 77] |  | 7.94 µM |  | 
55 | NCCc1ccccc1 [β-PEA, β-phenethylamine, reference compound] |  | 0.251 µM |  | Emax (hTAAR1): 100%
